In patent US20090187040A1, “FENOFIBRIC ACID POLYMORPHS; METHODS OF MAKING; AND METHODS OF USE THEREOF” (priority 2008, published 2009):
One block for each compound: values may come before it.

What was measured:
[1] = cited from earlier work
[2] = Fenofibric acid polymorph slurry study (form by XRPD or Raman); type: physicochemical; conditions: for relative thermodynamic stability of the enantiotropically related forms: Form A versus Form B, by temperature
Procedure: Approximately 30-45 mg in combination of Form B and Form A are weighed to an 8-mL vial outfitted with a stir bar. Solvent (water, toluene, and 1:1 water/IPA, DCM or MeCN) in the amount of 1 mL is added. The samples are sealed with a Teflon cap and parafilm and then placed on a magnetic stirrer at room temperature or 45° C. An aliquot is then sampled after 7 days and 21 days for determination of form by XRPD or Raman (Table 7).

Solubility in water = type: physicochemical; conditions: noted in lyophilization example
[3] = Grinding study of Form B in a ball mill (XRPD); type: physicochemical; conditions: ground for 30 seconds using a ball mill
Procedure: Approximately 50 mg of Form B is ground for 30 seconds using a ball mill and the resulting material is analyzed by XRPD.

Form, 21 Days (XRPD/Raman) ([2]; slurry in Toluene 1 mL, 45 °C): A + B | Form, 7 Days (XRPD/Raman) ([2]; slurry in Water 1 mL, RT): A + B
Structure (SMILES): CC(C)(Oc1ccc(C(=O)c2ccc(Cl)cc2)cc1)C(=O)O [Form A + B, 2-[4-(4-chlorobenzoyl)phenoxy]-2-methyl-propanoic acid]

Form, 7 Days (XRPD/Raman) ([2]; slurry in DCM 1 mL, 45 °C): A + B | Form, 21 Days (XRPD/Raman) ([2]; slurry in DCM 1 mL, 45 °C): A + B | Form, 21 Days (XRPD/Raman) ([2]; slurry in Water 1 mL, RT): Diffuse | solubility in water (Solubility in water): limited solubility
Structure (SMILES): CC(C)(Oc1ccc(C(=O)c2ccc(Cl)cc2)cc1)C(=O)O [Form A, 2-[4-(4-chlorobenzoyl)phenoxy]-2-methyl-propanoic acid]
relative thermodynamic stability of the enantiotropically related forms [2]: more stable at elevated temperatures (e.g., above about 45° C.)

Continued, compound first:

Structure (SMILES): CC(C)OC(=O)C(C)(C)Oc1ccc(C(=O)c2ccc(Cl)cc2)cc1 [Fenofibrate, 2-[4-(4-chlorobenzoyl)phenoxy]-2-methyl-propanoic acid, 1-methylethyl ester]
effect on high-density lipoprotein (HDL) and apoproteins apoAI and apoAII ([1]; treatment with fenofibrate): results in increases

Structure (SMILES): CC(C)(Oc1ccc(C(=O)c2ccc(Cl)cc2)cc1)C(=O)O [Fenofibric acid, 2-[4-(4-chlorobenzoyl)phenoxy]-2-methyl-propanoic acid]
effect on total cholesterol, LDL cholesterol, apolipoprotein B, total triglycerides and triglyceride rich lipoprotein (VLDL) ([1]; treated patients): produces reductions

Structure (SMILES): CC(C)(Oc1ccc(C(=O)c2ccc(Cl)cc2)cc1)C(=O)O [Form B, 2-[4-(4-chlorobenzoyl)phenoxy]-2-methyl-propanoic acid]
relative thermodynamic stability of the enantiotropically related forms [2]: more thermodynamically stable at lower temperatures (e.g., room temperature) | Form, 7 Days (XRPD/Raman) ([2]; slurry in DCM 1 mL, 45 °C): A + B | Form, 21 Days (XRPD/Raman) ([2]; slurry in DCM 1 mL, 45 °C): A + B | form observed after grinding (XRPD) [3]: Form A is observed
